Measurements reported in patent publication US7906554B2, “Combination chemotherapy compositions and methods” (Novogen Research Pty Ltd, priority 2002, dated 2011).
Read-outs that look alike come from different tables or passages of the source. Each block holds one compound with its values, some of them ahead of it.

Key:
A2780 = assay: Cell viability (CellTiter), concurrent dehydroequol and cisplatin; type: cell-based
Experimental: (§1) The effect of a composition comprising the platinum complex cisplatin and the isoflavonoid compound dehydroequol (compound No. 12) on various cancer cell lines was assessed on culture plates. Cell viability was determined using CellTiter©. Apoptosis was evaluated using Hoechst 33342 dye.

CP70 [1] = assay: as above; type: cell-based
Experimental: as §1

DU145 = assay: as above; type: cell-based
Experimental: as §1

HPAC = assay: as above; type: cell-based
Experimental: as §1

PC3 = assay: as above; type: cell-based
Experimental: as §1

CP70 [2] = assay: In vivo CP70 tumour injected subcutaneously into nude mice; conditions: cisplatin 0.5 mg/kg alone
Experimental: (§2) The in vitro studies were performed using ovarian cancer cells isolated from ascites using an immunomagnetic assay and established ovarian cancer cell lines CP70 and A2780. Cell viability was determined using CellTiter©. Apoptosis was evaluated using Hoechst 33342 dye. The in vivo effect was tested by injecting CP70 subcutaneously into nude mice. Animals received daily oral administration of dehydroequol, 10 or 20 mg/kg for 8 days alone or in combination with cisplatin 0.5 mg/kg. After 8 days the animals were sacrificed and the tumour volume was measured.

[3] = system: ovarian cancer cells isolated from ascites and ovarian cancer cell lines CP70 and A2780; assay: Cell viability (CellTiter) of ovarian cancer cells with or without dehydroequol pre-treatment; type: cell-based
Experimental: as §2

[4] = system: carboplatin and paclitaxel resistant cells; assay: Decrease in cell viability in chemoresistant cells; type: cell-based
Experimental: as §2

caspase 3 = assay: Western blot analysis of resistant ovarian cancer cells; type: cell-based; conditions: chemoresistant cells, only after pre-treatment with dehydroequol (FIG. 5)
Text: FIG. 5 represents a Western Blot analysis of carboplatin or paclitaxel treatment resistant ovarian cancer CP70 cells with and without dehydroequol pre-treatment.
Additionally, the active form of caspase 3 in chemoresistant cells was not detected.

[5] = system: paclitaxel resistant cell line, R182; assay: Cell viability (CellTiter), paclitaxel resistant cell line; type: cell-based; conditions: R182, no pre-treatment (FIG. 2)
Experimental: as §2

Structure (SMILES): N.N.[Cl][Pt][Cl] [Cisplatin, cis-diamminedichloroplatinum (II)]
IC50 (A2780; A2780, co-incubation with 2 uM dehydroequol, read-out: Cisplatin IC50 +2 uM dehydroequol): < 1 nM
IC50 (A2780; A2780, single agent, read-out: IC50): 3000 nM
IC50 (CP70 [1]; CP70, co-incubation with 2 uM dehydroequol, read-out: Cisplatin IC50 +2 uM dehydroequol): 100 nM
IC50 (CP70 [1]; CP70, single agent, read-out: IC50): 10400 nM
IC50 (DU145; DU145, co-incubation with 2 uM dehydroequol, read-out: Cisplatin IC50 +2 uM dehydroequol): 100 nM
IC50 (DU145; DU145, single agent, read-out: IC50): 5000 nM
IC50 (HPAC; co-incubation with 2 uM dehydroequol, read-out: Cisplatin IC50 +2 uM dehydroequol): 7700 nM
IC50 (HPAC; single agent, read-out: IC50): 34500 nM
IC50 (PC3; PC3, co-incubation with 2 uM dehydroequol, read-out: Cisplatin IC50 +2 uM dehydroequol): < 1 nM
IC50 (PC3; PC3, single agent, read-out: IC50): 400 nM
effect on tumour size (CP70 [2]): no effect

Structure (SMILES): N.N.O=C([O-])C1(C(=O)[O-])CCC1.[Pt+2] [carboplatin]
IC50 for carboplatin after dehydroequol pre-treatment ([3]; pre-treatment with dehydroequol (10 μg/ml) for two hours, +/−0.5 (FIG. 3)): 0.5 µg/mL
decrease in cell viability ([4]; pre-treatment (2 h) with DHE followed by the agent for 48 h): 30%

Structure (SMILES): Oc1ccc(C2=Cc3ccc(O)cc3OC2)cc1 [dehydroequol]
IC50 (A2780; Homo sapiens, A2780): 1700 nM
IC50 (CP70 [1]): 1500 nM
IC50 (DU145; Homo sapiens, DU-145): 5900 nM
IC50 (HPAC; Homo sapiens): 50000 nM
IC50 (PC3; Homo sapiens, PC-3): 9600 nM
decrease in cell viability ([4]; pre-treatment alone for 2 h): 20%
decrease in cell viability ([4]; treatment for 48 hours): 60-80%
Caspase 3 activation (caspase 3): Caspase 3 activation was observed

IC50 ([3]; Homo sapiens, A2780, pre-treatment with dehydroequol (10 μg/ml) for two hours (FIG. 4), read-out: IC50 for paclitaxel after dehydroequol pre-treatment): 50 nM
Structure (SMILES): CC(=O)O[C@H]1C(=O)[C@@]2(C)[C@H]([C@H](OC(=O)c3ccccc3)[C@]3(O)C[C@H](OC(=O)[C@H](O)[C@@H](NC(=O)c4ccccc4)c4ccccc4)C(C)=C1C3(C)C)[C@]1(OC(C)=O)CO[C@@H]1C[C@@H]2O [paclitaxel]
IC50 [5]: > 2000 nM
